Assay results as given in publication PMC12439166, “Dietary flavonoids form supramolecular assemblies, alter biochemistry, and enhance cell resilience” (Frontiers in Nutrition, 2025).
“Also recorded” adds a separate entry of the source.

Columns and labels:
[1] = molecular target: T1, MAP/microtubule affinity-regulating kinase 4 (MARK4) (Homo sapiens, UniProt Q96L34); experiment: Enzyme activity assay (SAMDI-MS), MARK4; type: biochemical; details: 10 concentrations, 5 nM to 100 μM, compounds incubated with enzyme 30 min, result in words
T1 sequence (Q96L34 1-752): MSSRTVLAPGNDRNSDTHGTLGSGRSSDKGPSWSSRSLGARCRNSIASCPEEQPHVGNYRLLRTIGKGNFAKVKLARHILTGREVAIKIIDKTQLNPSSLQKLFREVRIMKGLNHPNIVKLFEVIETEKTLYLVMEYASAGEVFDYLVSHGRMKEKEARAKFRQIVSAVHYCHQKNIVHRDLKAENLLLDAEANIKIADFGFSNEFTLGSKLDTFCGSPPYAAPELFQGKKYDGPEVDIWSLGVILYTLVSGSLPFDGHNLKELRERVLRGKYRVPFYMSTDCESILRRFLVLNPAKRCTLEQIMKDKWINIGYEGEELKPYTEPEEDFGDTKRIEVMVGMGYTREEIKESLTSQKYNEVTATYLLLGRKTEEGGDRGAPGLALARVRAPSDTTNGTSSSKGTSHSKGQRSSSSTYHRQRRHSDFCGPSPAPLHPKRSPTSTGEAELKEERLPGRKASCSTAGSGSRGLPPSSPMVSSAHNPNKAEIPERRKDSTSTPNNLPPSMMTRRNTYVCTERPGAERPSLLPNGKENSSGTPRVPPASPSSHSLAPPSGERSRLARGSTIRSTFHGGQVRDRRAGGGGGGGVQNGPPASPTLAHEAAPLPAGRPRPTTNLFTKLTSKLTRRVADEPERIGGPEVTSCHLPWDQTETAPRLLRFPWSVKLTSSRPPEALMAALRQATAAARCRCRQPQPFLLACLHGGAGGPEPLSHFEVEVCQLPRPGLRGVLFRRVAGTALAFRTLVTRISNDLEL
Protocol: Enzyme screens were performed by SAMDI Tech (contract research organization); enzyme assays were performed in a 20 μL volume in 384-well low-volume polypropylene microtiter plates (Greiner Bio-One) at room temperature. The enzymes [Arginase 1 (ARG1), Lysine demethylase 4C (KDM4C), MAP/microtubule affinity-regulating kinase 4 (MARK4), Histone-Lysine N-methyltransferase (NSD2), Tyrosine-protein phosphatase non-receptor type 1 (PTP1B), and Sirtuin-3 (SIRT3)] were incubated with compounds for 30 min prior to initiation of the reaction by the addition of substrate and cofactors (if required). Reactions were quenched by the addition of 0.5% formic acid (final) with subsequent neutralization using 1% sodium bicarbonate (final). For SAMDI MS analysis, 2 μL of each reaction was transferred using a 384-channel automated liquid handler to SAMDI biochip arrays functionalized with a neutravidin-presenting self-assembled monolayer. The preparation of SAMDI biochip arrays has been previously described ([41], [42], [49]). The SAMDI arrays were incubated for 1 h in a humidified chamber to allow specific immobilization of the biotinylated substrates and products; they were then purified by washing with ultrafiltered water (50 μL/spot) and dried with compressed air. A matrix comprising α-Cyano-4-hydroxycinnamic acid in 80% acetonitrile: 20% aqueous ammonium citrate (10 mg/mL final) was applied in an automated format by dispensing 50 nL to each spot in the array. SAMDI MS was performed using reflector positive mode on an AB Sciex TOF-TOF 5800 System (AB Sciex, Framingham, MA) with 400 shots/spot analyzed in a random raster sampling. For data analysis, the area under the curves (AUCs) for the product peak and substrate peak were calculated using the TOF/TOF Series Explorer (AB Sciex), and the amount of product formed was calculated using the equation AUC product / (AUC product + AUC Substrate). Negative controls were pre-quenched with 0.5% formic acid (final). Lysozyme assay was performed using the manufacturer’s instructions (Biovision Lysozyme inhibitor screening kit K237). Flavonoids were acquired from Sigma-Aldrich and Seleckchem.
IC50 values of enzyme inhibition. Inhibition of the enzymes was measured at 10 concentration values in the range of 5 nM to 100 μM for each compound and enzyme, with two technical replicates; the percent inhibition values were determined by SAMDI software. Sigmoidal curves were fitted to the percent inhibition vs log10 (concentration) series, and IC50 values were determined at the crossing point of 50 % inhibition. […] First, for each IC50 value per compound and enzyme, a Z-score was calculated based on the log10 (IC50) value and that of the compounds that produced a successful readout for enzyme i , according to Equation 1: […]

[2] = system: human dermal fibroblasts; experiment: Protection of fibroblasts against ultraviolet radiation, cell viability by CellTiter-Glo; type: cell-based; details: 1 h pretreatment, 254 nm UV 20 mJ/cm^2, viability 24 h post-irradiation; result in words
Protocol: Human fibroblasts were obtained from Cell Applications Inc (Cat. # 106-05a) and were maintained in Dulbecco’s Modified Eagle medium (DMEM, Corning, Cat. #10-013-CV) with 10% fetal bovine serum (Gibco, Cat. #10082147) and 1% penicillin/streptomycin (Gibco, Cat. # 15070-063) in a humidified incubator with 5% CO2 at 37 °C. For ultraviolet radiation, fibroblasts were seeded in a 96-well plate at a density of 25,000 cells/well and maintained at 37 °C for 24 h. Cells were washed once with Hanks’ balanced salt solution (HBSS, Gibco, Cat. #14025-092), then treated for 1 h with different concentrations of compounds prepared in HBSS. Vitamin C (Sigma, Cat. # A5960) served as a positive control. Treated cells were exposed to ultraviolet light (UVP cross-linker, CL1000, 254 nm UV, 8 watts) at a total dose of 20 mJ/cm^2. Following irradiation, the HBSS was replaced with culture medium containing the same concentration of compounds as before irradiation, and cells were again maintained at 37 °C. Cell viability was measured at 24 h post-irradiation using CellTiter-Glo according to the manufacturer’s instructions (Promega, Cat.# G7571). Results were expressed as relative cell viability (%) with respect to control cells (cells without ultraviolet irradiation or compound treatment).

## O=c1c(O)c(-c2ccc(O)c(O)c2)oc2cc(O)cc(O)c12 [quercetin]
[1]; listed as Quercetin
  inhibition of enzyme activity, MARK4: inhibited
[1]; listed as Quercitin
  inhibition of enzyme activity, MARK4: concentration-dependent inhibition
[2]
  protection against the loss of cell viability caused by UV radiation: concentration-dependent protection

## C[C@@H]1O[C@@H](Oc2c(-c3ccc(O)c(O)c3)oc3cc(O)cc(O)c3c2=O)[C@H](O)[C@H](O)[C@H]1O [quercitrin]
[1]
  inhibition of enzyme activity, MARK4: did not affect; also recorded: did not inhibit
[2]
  protection against the loss of cell viability caused by UV radiation: concentration-dependent protection

## O=c1c(O[C@@H]2O[C@H](CO)[C@@H](O)[C@H](O)[C@H]2O)c(-c2ccc(O)c(O)c2)oc2cc(O)cc(O)c12 [isoquercitrin]
[1]
  inhibition of enzyme activity, MARK4: inhibited
[2]
  protection against the loss of cell viability caused by UV radiation: concentration-dependent protection
